The NIST ThermoML archive (doi:10.1016/j.jct.2012.05.007)

Settings: Liquid, Falling or rolling sphere viscometry

CCOS(=O)(=O)[O-].CCn1cc[n+](C)c1 [1-ethyl-3-methylimidazolium ethyl sulfate]
viscosity [mPa·s]
Settings	10000 kPa	15000 kPa	25000 kPa	50000 kPa	75000 kPa	100000 kPa	125000 kPa	150000 kPa
313.15 K	54.3	56.4	60.9	73.6	88.6	106.6	128.1	153.8
343.15 K	20.2	20.9	22.3	26.1	30.3	35	40.2	46.1
363.15 K	13.2	13.6	14.5	16.8	19.2	22	25	28.2

CCCC[N+]1(C)CCCC1.O=S(=O)([N-]S(=O)(=O)C(F)(F)F)C(F)(F)F
viscosity [mPa·s]
Settings	10000 kPa	15000 kPa	25000 kPa	50000 kPa	75000 kPa	100000 kPa	125000 kPa	150000 kPa
313.15 K	46.5	49.5	55.9	74.8	98.8	129.4	168.4	218
343.15 K	18.2	19.1	21.1	26.6	33.6	42.1	52.8	66.3
363.15 K	12.2	12.8	14.1	17.7	21.9	26.7	32.2	38.7

COCC[N+]1(C)CCCC1.O=S(=O)([N-]S(=O)(=O)C(F)(F)F)C(F)(F)F
viscosity [mPa·s]
Settings	10000 kPa	15000 kPa	25000 kPa	50000 kPa	75000 kPa	100000 kPa	125000 kPa	150000 kPa
313.15 K	33.3	35.3	39.5	52	67.5	86.9	111.2	141.5
343.15 K	14.8	15.5	17	21.2	26.2	32.3	39.6	48.5
363.15 K	10.2	10.7	11.6	14.3	17.5	21.2	25.5	30.5
